Among the data in ChEMBL document CHEMBL3881521, “Alpha-9 integrin antagonists and anti-inflammatory compositions therof” (2003) are Selectivity ratio and inhibition values, retold here.

Activity calls are given as the source filed them. No cut-off for these calls is given here. *1 amine or outer side, *2 acyl side, *3 side chain or, on linkers, in order; H or OH if unused. Where a SMILES comes first, the peptide text is derived from it. Side-chain parts run from the residue outwards. [ ]: non-standard residue; d: D form. The star is where a group is joined. Tos = Cc1ccc(S(=O)(=O)*)cc1; NMeA = CN[C@@H](C)C(=O)O; CO = O=C([*:1])[*:2]; Sar = CNCC(=O)O

Common to all, as to type: cell-based
Assay [1] concerns SW480. The assay is described as follows: Selectivity for integrin alpha9beta1 (unknown origin) expressed in SW480 cells over integrin alpha5beta1 (unknown origin). Particulars: Homo sapiens.
Assay [2] concerns the target Integrin alpha-4/beta-1 (Homo sapiens) (UniProt P05556+P13612). The assay is described as follows: Inhibition of C-terminal human lgG1 heavy chain constant region tagged recombinant soluble VCAM-1 binding to integrin alpha4beta1 in human Jurkat cells incubated for 30 mins by FACS based 15/7 antibody assay. For orientation: In flow cytometry, cells or beads pass a laser one at a time.

The test system of assay [3] is SW480. The assay is described as follows: Selectivity for integrin alpha9beta1 (unknown origin) expressed in SW480 cells over integrin alpha4beta7 (unknown origin). Particulars: Homo sapiens.
The target in assay [4] is ITGB1-ITGA9 complex (Homo sapiens) (UniProt P05556+Q13797). The assay is described as follows: Antagonist activity against integrin alpha9beta1 (unknown origin) expressed in SW480 cells assessed as inhibition of integrin alpha9-dependent cell adhesion to tenascin by binding saturation assay.

Regarding `Cc1ccc(S(=O)(=O)N2CCC[C@H]2C(=O)N[C@@H](Cc2ccc(OC(=O)N(C)C)cc2)C(=O)O)cc1` (Tos-Pro-Tyr([CO-NMe2])-OH), the Selectivity ratio in the assay on SW480 [1] and in the assay with SW480 [3] was 100 each time. For the same compound, the inhibition entry in assay [2] and in assay [4] was “Active” throughout.

Take `Cc1ccc(S(=O)(=O)N(C)CC(=O)N[C@@H](Cc2ccc(OC(=O)N(C)C)cc2)C(=O)O)cc1` (Tos-[Sar]-Tyr([CO-NMe2])-OH): the Selectivity ratio in the assay on SW480 [1] and with SW480 [3] was 100 in each case. The inhibition result in assay [2] and in assay [4] was “Active” each time.

On to `Cc1ccc(S(=O)(=O)N(C)[C@@H](C)C(=O)N[C@@H](Cc2ccc(OC(=O)N(C)C)cc2)C(=O)O)cc1` (Tos-[NMeA]-Tyr([CO-NMe2])-OH), for which the Selectivity ratio in the assay with SW480 [1] and in the assay with SW480 [3] was 100 each time. Besides, the inhibition result in assay [2] and in assay [4] was “Active” each time.

For `Cc1ccc(S(=O)(=O)N2CCS(=O)(=O)C[C@@H]2C(=O)N[C@@H](Cc2ccc(OC(=O)N(C)C)cc2)C(=O)O)cc1`, the Selectivity ratio with SW480 [1] and in the assay on SW480 [3] was 100 throughout. The inhibition entry in assay [2] and in assay [4] was “Active” throughout.

On to `Cc1ccc(S(=O)(=O)N2CS(=O)(=O)C(C)(C)[C@@H]2C(=O)N[C@@H](Cc2ccc(OC(=O)N(C)C)cc2)C(=O)O)cc1`, for which the Selectivity ratio with SW480 [1] and in the assay on SW480 [3] was 100 each time. Further, the inhibition entry in assay [2] and in assay [4] was “Active” throughout.

With `Cc1ccc(S(=O)(=O)N2CCC[C@H]2C(=O)N[C@@H](Cc2ccc(OC(=O)N3CCN(C)CC3)cc2)C(=O)O)cc1`, the Selectivity ratio in the assay on SW480 [1] and in the assay on SW480 [3] was 100 in each case. The inhibition entry in assay [2] and in assay [4] was “Active” each time.

With `Cc1ccc(S(=O)(=O)N2CCC[C@H]2C(=O)N[C@@H](Cc2ccc(OC(=O)N3CCNCC3)cc2)C(=O)O)cc1`, the Selectivity ratio with SW480 [1] and in the assay with SW480 [3] was 100 throughout. Moreover, the inhibition entry in assay [2] and in assay [4] was “Active” in each case.

Regarding `CN(C)C(=O)Oc1ccc(C[C@H](NC(=O)[C@@H]2CCCN2S(=O)(=O)c2cnn(C)c2)C(=O)O)cc1`, the Selectivity ratio in the assay on SW480 [1] and with SW480 [3] was 100 in each case. The inhibition result in assay [2] and in assay [4] was “Active” each time.

For `Cc1ccc(S(=O)(=O)N2CS(=O)(=O)C(C)(C)[C@@H]2C(=O)N[C@@H](Cc2ccc(OCCCN(C)C)cc2)C(=O)O)cc1`, the Selectivity ratio in the assay with SW480 [1] and with SW480 [3] was 100 each time. Besides, the inhibition result in assay [2] and in assay [4] was “Active” throughout.
